In brackets after ≈: the same amount, converted by molar mass. Entries after “also recorded” stand apart in the source; their conditions may differ. Read-outs that look alike come from different tables or passages of the source. Bounds are passed on as bounds.

Usually Solubility stands for the concentration that dissolves in the medium under given conditions. The half-life is how long it takes for the measured level to halve. The term Cmax denotes the peak of the concentration-time curve.

Data set [1] is described as follows: Solubility, Experiment 2 (target concentration 5 mg/mL). Type of data set: physicochemical. The settings on record: 37° C. On the procedure: Experiment 2: 5 mg of Form A and 5 mg of amorphous form were weighed into an 8 mL glass vial, respectively. 1 mL of solubility medium was added. Obtained suspensions/solutions were stirred at 37° C. at 400 rpm and sampled at 2 hours and at 24 hours. Obtained suspensions/solutions were filtered through a 0.45 μm PVDF membrane filter by centrifugation at 14,000 rpm and at 37° C. Filtrate were analyzed by HPLC and pH meter for solubility and pH value, respectively.

A short description of data set [2]: Solubility, Experiment 1 (target concentration 2 mg/mL). Type of data set: physicochemical. The settings on record: 37° C.; for Solubility: target concentration 2 mg/mL. On the procedure:
Experiment 1: 5 mg of Form A and 5 mg of amorphous form were weighed into an 8 mL glass vial, respectively. 2.5 mL of solubility medium was added. Obtained suspensions/solutions were stirred at 37° C. at 400 rpm and sampled at 2 hours and at 24 hours. Obtained suspensions/solutions were filtered through a 0.45 μm PVDF membrane filter by centrifugation at 14,000 rpm and at 37° C. Filtrate were analyzed by HPLC and pH meter for solubility and pH value, respectively. Residual solids (wet cakes) from the 24 hours samples were also characterized by XRPD to determine physical form.

Data set [3] in a line: Phase 1 clinical trial, safety and tolerability. In kind it is in vivo, human. From the text:
(§1) A Phase 1 Open-Label Study to Assess the Safety, Tolerability, Pharmacokinetics, and Pharmacodynamics of Compound 1 in Patients with MAPK Pathway-Driven Advanced Solid Tumors with a Documented RAS, NF1, or RAF Mutation or Patients Who have Failed BRAF/MEK Inhibition
(§2) The Phase 1 clinical trial is a multi-center, open-label, dose escalation 3+3 study design to evaluate the safety, tolerability, pharmacokinetic (PK), pharmacodynamic (PD), and preliminary efficacy of Compound 1 in patients with MAPK pathway driven advanced solid tumors with a documented RAS, NF or RAF mutation or patients who have failed BRAF/MEK inhibition.
(§3) Patients with histologically or cytologically diagnosed mitogen-activated protein kinase (MAPK) pathway driven advanced solid tumors with all of the following characteristics qualified for enrollment: • i. tumor cannot be surgically resected • ii. patient has failed or is ineligible for standard of care therapy • iii. patient has no available treatment options with known clinical benefit • iv. documented evidence of rat sarcoma virus (RAS), neurofibromatosis type I (NF1), and/or rapidly accelerated fibrosarcoma (RAF) mutations. Patients with RAF mutations must have previously failed v-Raf murine sarcoma viral oncogene homolog B (BRAF)/MEK inhibition.
(§4) Patients in the study were administered Compound 1 by mouth as a single dose, followed by one week observation, then once a day during the study, in 28-day cycles. Participants will continue on daily Compound 1 for up to 2 years, or until: • i. they decide to withdraw from the study, or • ii. they experience unacceptable side effects, or • iii. their disease progresses, or another illness interferes with taking the study drug, or • iv. the sponsors stops the study.
(§5) In this study, Compound 1 was presented in 1 mg, 4 mg, and 10 mg strength capsules, intended for oral administration once daily. Sequential dose escalation is: 2 mg, 4 mg, 8 mg, 15 mg, 22 mg, 30 mg, 37 mg, and 45 mg.

Data set [4] is described as follows: Phase 1 clinical trial, pharmacokinetics. In kind it is in vivo, human. The note with it: for AUC0-24 / Cmin / half-life / Cmax: patients; for AUC0-24 / Cmin / Cmax: geometric mean (geometric CV %); for half-life / Cmax: human, plasma, po.
Source text: as §1, §2, §3, §4, §5

Where [5] appears, read: Acetate buffer (50 mM), pH 4.5, 24 h.
The mark [6] stands for this setting: Phosphate buffer (50 mM), pH 6.8, 24 h.
The mark [7] stands for this setting: 2 mg, Day 22 (steady state), oral once daily.
Where [8] appears, read: 4 mg, Day 22 (steady state), oral once daily.

With `O=S1(=O)Nc2c(cc(F)c(F)c2Nc2ccc(I)cc2F)OC[C@H](O)[C@H](O)CC12CC2` [Amorphous form, (5R,6S)-10,11-difluoro-12-((2-fluoro-4-iodophenyl)amino)-5,6-dihydroxy-4,5,6,7-tetrahydro-1H-spiro[benzo[b][1,5,4]oxathiazecine-3,1′-cyclopropane]2,2-dioxide], the Solubility in data set [1] (FeSSIF-v1, pH 5.0, 2 h) was greater than 5000 µg/mL; in data set [1] (FeSSIF-v1, pH 5.0, 24 h), greater than 5000 µg/mL; in data set [2] (Acetate buffer (50 mM), pH 4.5, 2 h), 17 µg/mL (≈ 29.8 µM); in data set [2] (setting [5]), 17 µg/mL (≈ 29.8 µM); in data set [2] (FaSSGF, pH 1.6, 2 h) it was 16 µg/mL (≈ 28.1 µM); in data set [2] (FaSSGF, pH 1.6, 24 h), 14 µg/mL (≈ 24.5 µM). Further, the Solubility in data set [2] (FaSSIF-v1, pH 6.5, 2 h) was 1100 µg/mL (≈ 1930 µM); in data set [2] (FaSSIF-v1, pH 6.5, 24 h), 1200 µg/mL (≈ 2100 µM); in data set [2] (FeSSIF-v1, pH 5.0, 2 h), greater than 2000 µg/mL; in data set [2] (FeSSIF-v1, pH 5.0, 24 h), greater than 2000 µg/mL; in data set [2] (HCl solution, pH 1.2, 2 h), 14 µg/mL (≈ 24.5 µM); in data set [2] (HCl solution, pH 1.2, 24 h), 13 µg/mL (≈ 22.8 µM). Besides, the Solubility in data set [2] (Phosphate buffer (50 mM), pH 6.8, 2 h) was 16 µg/mL (≈ 28.1 µM); in data set [2] (setting [6]), 16 µg/mL (≈ 28.1 µM); in data set [2] (Water, 2 h), 38 µg/mL (≈ 66.6 µM); in data set [2] (Water, 24 h), 34 µg/mL (≈ 59.6 µM). In addition, the “XRPD of residual solid” value in data set [2] (setting [5]) is given as “Amorphous”; in data set [2] (FaSSGF, pH 1.6, 24 h), “Amorphous”; in data set [2] (FaSSIF-v1, pH 6.5, 24 h), “Amorphous”; in data set [2] (HCl solution, pH 1.2, 24 h) it was “Form A”; in data set [2] (setting [6]), “Amorphous”; in data set [2] (Water, 24 h) it was “Amorphous”.

With `O=S1(=O)Nc2c(cc(F)c(F)c2Nc2ccc(I)cc2F)OC[C@H](O)[C@H](O)CC12CC2` [Compound 1, (5R,6S)-10,11-difluoro-12-((2-fluoro-4-iodophenyl)amino)-5,6-dihydroxy-4,5,6,7-tetrahydro-1H-spiro[benzo[b][1,5,4]oxathiazecine-3,1′-cyclopropane]2,2-dioxide], in data set [3] (2 and 4 mg dose levels), the “Rash or skin, gastrointestinal (GI), ocular toxicity” value is “without showing adverse side effects such as rash or GI toxicity; also recorded: no rash or skin toxicity, gastrointestinal (GI) toxicity, or ocular toxicity have been observed”. In addition, in data set [3] (any dose arm), the “Drug-related serious adverse events (SAE)” value is “no drug-related serious adverse events”. For the same compound, in data set [3] (first 2 dosing cohorts (n=6)), the “Drug-related dose interruptions, reductions or discontinuations” value was “no drug-related dose interruptions, reductions or discontinuations”. Further, the Tolerability entry in data set [3] (first 2 dosing cohorts (n=6), 2 mg and 4 mg) is recorded as “well-tolerated”. Besides, the “Dose dependence of plasma exposure” value in data set [4] (2 mg and 4 mg cohorts) was “linear PK was observed”. In addition, the AUC0-24 in data set [4] (2 mg, Day 1, oral) is 86.3 (89.2) ng*h/mIL; in data set [4] (setting [7]) it was 354 (95.2) ng*h/mIL; in data set [4] (4 mg, Day 1, oral) it was 100 (97.1) ng*h/mIL; in data set [4] (setting [8]) it was 1,390 (12.8) ng*h/mIL. For the same compound, the Cmin in data set [4] (setting [7]) is 10.2 (119.4) ng/mL; in data set [4] (setting [8]), 51.5 (20.8) ng/mL. Further, the “time at which drug levels peaked” value in data set [4] (at steady-state, 2 mg and 4 mg dose groups) was “about 5 hours”. In addition, the half-life in data set [4] (2 mg and 4 mg cohorts, oral, read-out: half-life (converted)) was roughly 70 h; in data set [4] (2 mg and 4 mg cohorts, oral, read-out: mean elimination half-life (converted)) it was 67.9 h. Also, the Cmax in data set [4] (2 mg, Day 1, oral) worked out at 4.91 ng/mL; in data set [4] (setting [7]), 16.2 ng/mL; in data set [4] (4 mg, Day 1, oral) it was 6.36 ng/mL; in data set [4] (setting [8]) it was 61.3 ng/mL. Also, in data set [4] (plasma concentration at steady state), the Cmax/Cmin ratio is reported as 1.2.
